From PubChem BioAssay AID1963861 (Molecular Pharmacology Branch, DTP, NCI, 2024)

Tested on: 885724-159-R-J1-PDC KRAS PDC multicell spheroid viability
Assay: Anticancer human tumor 885724-159-R-J1-PDC patient-derived pancreatic adenocarcinoma cell line growth inhibition [KRAS2]
Details: for IC50: curve of first compound; for viability, T/C: stronger effect = lower value
Text: Multicellular complex tumor spheroid response to RAS pathway inhibitors in combination with a targeted agents in patient-derived cell lines with oncogenic KRAS variants from multiple cancer types
A high-throughput screen of multi-cell type tumor spheroids was designed to identify active combinations of targeted small molecules and KRAS pathway inhibitors. Complex spheroids include a stromal component modeled by human endothelial cells (HUVEC) and fibroblasts modeled by human mesenchymal stem cells (MSCs). The concentration ranges selected for each drug and investigational agent were based upon clinically achievable concentrations if the clinical Cmax of the agent was known.
Compounds. The drugs and investigational agents: BI-3406 (NSC825286), BAY-293 (NSC824723), batoprotafib (TNO155; NSC825523), sotorasib (AMG 510; NSC818433), MRTX1257 (NSC819558), elimusertib (BAY 1895344; NSC800525), molibresib (GSK525762; NSC774829), temuterkib (LY3214996; NSC803410), venetoclax (NSC766270), alisertib (NSC759677), olaparib (NSC753686), talazoparib (NSC767125), erdafitinib (NSC781556), ipatasertib (NSC767898), cabozantinib (NSC761068), nintedanib (NSC756659), abemaciclib (NSC768073), docetaxel (NSC628503), trametinib (NSC758246), and sapanisertib (NSC764658) were obtained from the National Cancer Institute (NCI) Developmental Therapeutics Program Chemical Repository. The FDA-approved anticancer drug set is available from the Developmental Therapeutics Program. […] The stock solutions were prepared in dimethyl sulfoxide (DMSO, Sigma-Aldrich, St. Louis, MO, cat. D2650) at 800-fold the tested concentration and stored at -70 degrees C prior to their use. All drugs and investigational agents were tested over a range starting from a high concentration at or near the clinical Cmax and decreasing in half-log increments. If the clinical Cmax for an agent had not been determined, the highest concentration tested was 10 microM.
Cell Culture. All cells were maintained in an incubator at 37 degrees C and 5% CO2 with 95% humidity. The PDC lines were cultured according to standard operating procedures established by the NCI PDMR (https://pdmr.cancer.gov/sops/default.htm). Briefly, all PDCs were thawed and cultured in Matrigel-coated flasks prepared with a working solution of 1X Ham's F-12 nutrient mix, without supplementation (Invitrogen, Waltham, MA, cat. 11765054), 100 U/mL penicillin-streptomycin (Invitrogen, cat. 15140122), and 2.5% Matrigel (Corning Inc., Corning, NY, cat. 354248) for the first three passages. All PDCs were cultured in complete DMEM/F-12 media containing advanced DMEM/F-12 (Invitrogen, cat. 12634028), 4.9% defined fetal bovine serum, heat inactivated (HyClone Laboratories Inc., Logan, UT, cat. SH30070.03HI), 389 ng/mL hydrocortisone (Sigma-Aldrich, cat. H4001), 9.7 ng/mL human EGF recombinant protein (Invitrogen, cat. PHG0313), 23.4 microg/mL adenine (Sigma-Aldrich, cat. A2786), 97.3 U/mL penicillin-streptomycin (Invitrogen, cat. 15140122), 1.9 mM L-glutamine (Invitrogen, cat. 25030081), and 9.7 microM Y-27632 dihydrochloride (Tocris Bioscience, Bristol, United Kingdom, cat. 1254). The PDCs were cultured in complete DMEM/F12 media without 9.7 microM Y-27632 dihydrochloride for at least two passages prior to the screen. The established cell line HOP-62 was cultured in RPMI 1640 medium, HEPES (Invitrogen, cat. 22400105) with 10% defined fetal bovine serum (HyClone Laboratories Inc., cat. SH30070.03) and 2 mM L-glutamine (Invitrogen, cat. 25030081). The pooled donor HUVEC were cultured in endothelial cell growth medium 2 (PromoCell, Heidelberg, Germany, cat. C-22011) and the hMSC were cultured in mesenchymal stem cell growth medium 2 (PromoCell, cat. C-28009). For all experiments, HUVEC and hMSC were used at passages </=5, while the malignant cell lines were used at passages </=15. […]
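Further: spheroids exposed to agents for 7 days before readout.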

For COc1cc2nccc(Oc3ccc(NC(=O)C4(C(=O)Nc5ccc(F)cc5)CC4)cc3)c2cc1OC + C=CC(=O)N1CCN(c2nc(=O)n(-c3c(C)ccnc3C(C)C)c3nc(-c4c(O)cccc4F)c(F)cc23)C(C)C1, the IC50 (second compound 0.1 µM) was > 10 µM, the IC50 (second compound 0.316 µM) was > 10 µM and the IC50 (second compound 1 µM) was > 10 µM. For the same molecule, the IC50 (second compound 3.16 µM) was > 10 µM, the IC50 (second compound 10 µM) was 2.4 µM and the viability, T/C (second compound 0.1 µM, first compound 0.0316 µM) was 123%. The viability, T/C (second compound 0.1 µM, first compound 0.1 µM) was 125%, the viability, T/C (second compound 0.1 µM, first compound 0.316 µM) was 142% and the viability, T/C (second compound 0.1 µM, first compound 1 µM) was 113%. For the same molecule, the viability, T/C (second compound 0.1 µM, first compound 3.16 µM) was 81.4%, the viability, T/C (second compound 0.1 µM, first compound 10 µM) was 75.6% and the viability, T/C (second compound 0.316 µM, first compound 0.0316 µM) was 124%. It also gave a viability, T/C (second compound 0.316 µM, first compound 0.1 µM) of 117%, a viability, T/C (second compound 0.316 µM, first compound 0.316 µM) of 117% and a viability, T/C (second compound 0.316 µM, first compound 1 µM) of 126%. For the same molecule, the viability, T/C (second compound 0.316 µM, first compound 3.16 µM) was 90.4%, the viability, T/C (second compound 0.316 µM, first compound 10 µM) was 77.7% and the viability, T/C (second compound 1 µM, first compound 0.0316 µM) was 118%. For the same molecule, the viability, T/C (second compound 1 µM, first compound 0.1 µM) was 122%, the viability, T/C (second compound 1 µM, first compound 0.316 µM) was 114% and the viability, T/C (second compound 1 µM, first compound 1 µM) was 126%. It also gave a viability, T/C (second compound 1 µM, first compound 3.16 µM) of 86.4%, a viability, T/C (second compound 1 µM, first compound 10 µM) of 77.6% and a viability, T/C (second compound 3.16 µM, first compound 0.0316 µM) of 117%. The viability, T/C (second compound 3.16 µM, first compound 0.1 µM) was 122%, the viability, T/C (second compound 3.16 µM, first compound 0.316 µM) was 123% and the viability, T/C (second compound 3.16 µM, first compound 1 µM) was 106%. For the same molecule, the viability, T/C (second compound 3.16 µM, first compound 3.16 µM) was 78.6%, the viability, T/C (second compound 3.16 µM, first compound 10 µM) was 77.7% and the viability, T/C (second compound 10 µM, first compound 0.0316 µM) was 75.6%. It also gave a viability, T/C (second compound 10 µM, first compound 0.1 µM) of 72.2%, a viability, T/C (second compound 10 µM, first compound 0.316 µM) of 62.3% and a viability, T/C (second compound 10 µM, first compound 1 µM) of 86.2%. It also gave a viability, T/C (second compound 10 µM, first compound 3.16 µM) of 35.8% and a viability, T/C (second compound 10 µM, first compound 10 µM) of 48.9%.
